Test results: US11684598B2, “Use of cannabinoids in the treatment of epilepsy” (priority 2015, dated 2023)
Where “and” joins values, the source holds several entries; their conditions need not be identical. Equal values may be shown once. Read-outs that look alike come from different tables or passages of the source.

Assay: Toxicokinetics from toxicological studies in dogs, daily oral (gavage) administration
Type: in vivo, dog
Settings: for Vd/F: read-out: Vz/F
Method: Samples were taken from the jugular vein into lithium heparin. Samples were mixed gently by hand then continuously for at least 2 minutes on automatic mixer and placed in a Kryorack until centrifugation, which was carried out at approximately 4° C. as soon as practicable. The resultant plasma was separated under low light conditions, transferred to uniquely labelled clear glass vials, placed in light proof boxes and frozen immediately at <−50° C.

[1] = CBD 100 mg/kg oral, Day 1, males, individual animals (Subjects 15-20)

Which AUC0-inf [1] does the source give for `C=C(C)[C@@H]1CCC(C)=C[C@H]1c1c(O)cc(CCCCC)cc1O` [CBD, Cannabidiol] here?
Its AUC0-inf is 55300 ng·h/mL and 60500 ng·h/mL and 20300 ng·h/mL and 31100 ng·h/mL.

What about the AUC0-t [1] of the same compound?
Its AUC0-t is 47300 ng·h/mL and 51800 ng·h/mL and 33000 ng·h/mL and 17200 ng·h/mL and 28700 ng·h/mL and 26400 ng·h/mL.

What about the CL/F [1] of the same compound?
The CL/F was 30.1 mL/min/kg and 27.5 mL/min/kg and 82.1 mL/min/kg and 53.6 mL/min/kg.

And the Cmax [1]?
The Cmax was 3960 ng/mL and 4570 ng/mL and 3620 ng/mL and 1400 ng/mL and 2430 ng/mL and 3090 ng/mL.

What about the tl/2 [1] of the same compound?
Its tl/2 is 8.6 h and 7.7 h and 5.4 h and 8.5 h and 5.7 h.

And the tmax [1]?
Its tmax is 8.0 h.

And the AUC0-inf (female, dog, plasma, po, 100 mg/kg, CBD 100 mg/kg oral, Day 1, females, Geometric Mean, read-out: AUC0-inf)?
Its AUC0-inf is 8930 ng·h/mL.

What about the AUC0-t (female, dog, plasma, po, 100 mg/kg, CBD 100 mg/kg oral, Day 1, females, Geometric Mean, read-out: AUC0-t) of the same compound?
The AUC0-t was 12300 ng·h/mL.

What about the CL/F (female, dog, plasma, po, 100 mg/kg, CBD 100 mg/kg oral, Day 1, females, Geometric Mean, read-out: CL/F) of the same compound?
The CL/F was 187 mL/min/kg.

And the Cmax (female, dog, plasma, po, 100 mg/kg, CBD 100 mg/kg oral, Day 1, females, Geometric Mean, read-out: Cmax)?
Its Cmax is 1590 ng/mL.

And the Vd/F (female, dog, plasma, po, 100 mg/kg, CBD 100 mg/kg oral, Day 1, females, Geometric Mean)?
Its Vd/F is 94.8 L/kg.

What about the AUC0-inf (female, dog, plasma, po, 100 mg/kg, CBD 100 mg/kg oral, Day 1, females, Mean, N=4, read-out: AUC0-inf) of the same compound?
Its AUC0-inf is 15300 ng·h/mL.

And the CL/F (female, dog, plasma, po, 100 mg/kg, CBD 100 mg/kg oral, Day 1, females, Mean, N=4, read-out: CL/F)?
The CL/F was 316 mL/min/kg.

What about the Vd/F (female, dog, plasma, po, 100 mg/kg, CBD 100 mg/kg oral, Day 1, females, Mean, N=4) of the same compound?
Its Vd/F is 169 L/kg.

What about the AUC0-t (female, dog, plasma, po, 100 mg/kg, CBD 100 mg/kg oral, Day 1, females, Mean, N=6, read-out: AUC0-t) of the same compound?
The AUC0-t was 18600 ng·h/mL.

And the Cmax (female, dog, plasma, po, 100 mg/kg, CBD 100 mg/kg oral, Day 1, females, Mean, N=6, read-out: Cmax)?
The Cmax was 2090 ng/mL.

What about the AUC0-inf (female, dog, plasma, po, 100 mg/kg, CBD 100 mg/kg oral, Day 1, females, Median, read-out: AUC0-inf) of the same compound?
The AUC0-inf was 12800 ng·h/mL.

What about the AUC0-t (female, dog, plasma, po, 100 mg/kg, CBD 100 mg/kg oral, Day 1, females, Median, read-out: AUC0-t) of the same compound?
The AUC0-t was 21300 ng·h/mL.

What about the CL/F (female, dog, plasma, po, 100 mg/kg, CBD 100 mg/kg oral, Day 1, females, Median, read-out: CL/F) of the same compound?
The CL/F was 291 mL/min/kg.

What about the Cmax (female, dog, plasma, po, 100 mg/kg, CBD 100 mg/kg oral, Day 1, females, Median, read-out: Cmax) of the same compound?
Its Cmax is 2210 ng/mL.

And the Vd/F (female, dog, plasma, po, 100 mg/kg, CBD 100 mg/kg oral, Day 1, females, Median)?
The Vd/F was 145 L/kg.

What about the tmax (female, dog, plasma, po, 100 mg/kg, CBD 100 mg/kg oral, Day 1, females, Median, read-out: tmax) of the same compound?
The tmax was 4 h.

What about the AUC0-t (female, dog, plasma, po, 100 mg/kg, comparative Table 11, females, 100 mg/kg, Day 1, mean, read-out: AUC0-t) of the same compound?
The AUC0-t was 18600 ng·h/mL.

What about the Cmax (female, dog, plasma, po, 100 mg/kg, comparative Table 11, females, 100 mg/kg, Day 1, mean, read-out: Cmax) of the same compound?
Its Cmax is 2090 ng/mL.

What about the AUC0-inf (male, dog, plasma, po, 100 mg/kg, CBD 100 mg/kg oral, Day 1, males, Geometric Mean, read-out: AUC0-inf) of the same compound?
The AUC0-inf was 37600 ng·h/mL.

What about the AUC0-t (male, dog, plasma, po, 100 mg/kg, CBD 100 mg/kg oral, Day 1, males, Geometric Mean, read-out: AUC0-t) of the same compound?
Its AUC0-t is 31900 ng·h/mL.

What about the CL/F (male, dog, plasma, po, 100 mg/kg, CBD 100 mg/kg oral, Day 1, males, Geometric Mean, read-out: CL/F) of the same compound?
The CL/F was 44.4 mL/min/kg.

What about the Cmax (male, dog, plasma, po, 100 mg/kg, CBD 100 mg/kg oral, Day 1, males, Geometric Mean, read-out: Cmax) of the same compound?
The Cmax was 2970 ng/mL.

And the Vd/F (male, dog, plasma, po, 100 mg/kg, CBD 100 mg/kg oral, Day 1, males, Geometric Mean)?
The Vd/F was 27 L/kg.

What about the AUC0-inf (male, dog, plasma, po, 100 mg/kg, CBD 100 mg/kg oral, Day 1, males, Mean, N=5, read-out: AUC0-inf) of the same compound?
The AUC0-inf was 40500 ng·h/mL.

And the CL/F (male, dog, plasma, po, 100 mg/kg, CBD 100 mg/kg oral, Day 1, males, Mean, N=5, read-out: CL/F)?
The CL/F was 48.1 mL/min/kg.

What about the Vd/F (male, dog, plasma, po, 100 mg/kg, CBD 100 mg/kg oral, Day 1, males, Mean, N=5) of the same compound?
The Vd/F was 29.9 L/kg.

What about the AUC0-t (male, dog, plasma, po, 100 mg/kg, CBD 100 mg/kg oral, Day 1, males, Mean, N=6, read-out: AUC0-t) of the same compound?
The AUC0-t was 34100 ng·h/mL.

And the Cmax (male, dog, plasma, po, 100 mg/kg, CBD 100 mg/kg oral, Day 1, males, Mean, N=6, read-out: Cmax)?
Its Cmax is 3180 ng/mL.

What about the AUC0-inf (male, dog, plasma, po, 100 mg/kg, CBD 100 mg/kg oral, Day 1, males, Median, read-out: AUC0-inf) of the same compound?
The AUC0-inf was 35400 ng·h/mL.

And the AUC0-t (male, dog, plasma, po, 100 mg/kg, CBD 100 mg/kg oral, Day 1, males, Median, read-out: AUC0-t)?
Its AUC0-t is 30800 ng·h/mL.

What about the CL/F (male, dog, plasma, po, 100 mg/kg, CBD 100 mg/kg oral, Day 1, males, Median, read-out: CL/F) of the same compound?
The CL/F was 47.1 mL/min/kg.

What about the Cmax (male, dog, plasma, po, 100 mg/kg, CBD 100 mg/kg oral, Day 1, males, Median, read-out: Cmax) of the same compound?
The Cmax was 3360 ng/mL.

And the Vd/F (male, dog, plasma, po, 100 mg/kg, CBD 100 mg/kg oral, Day 1, males, Median)?
The Vd/F was 22.3 L/kg.

What about the tmax (male, dog, plasma, po, 100 mg/kg, CBD 100 mg/kg oral, Day 1, males, Median, read-out: tmax) of the same compound?
Its tmax is 6 h.

What about the tmax (male, dog, plasma, po, 100 mg/kg, CBD 100 mg/kg oral, Day 1, males, individual animals (Subjects 15-20), read-out: tmax) of the same compound?
The tmax was 6 h.

And the AUC0-t (male, dog, plasma, po, 100 mg/kg, comparative Table 10, males, 100 mg/kg, Day 1, mean, read-out: AUC0-t)?
Its AUC0-t is 34100 ng·h/mL.

What about the Cmax (male, dog, plasma, po, 100 mg/kg, comparative Table 10, males, 100 mg/kg, Day 1, mean, read-out: Cmax) of the same compound?
Its Cmax is 3180 ng/mL.
